Assay results reported in patent US20210386826A1, “Combination for Treating Cancer” (Pfizer Inc., priority 2018, published 2021).

Target: IL-2Rαβ (Homo sapiens, UniProt P01589+P14784)
Text: The term “CD-122-biased cytokine agonist” (also referred to as an interleukin-2 receptor beta (ILRβ), selective agonist) as used herein, refers to an agonist that has a greater affinity for binding to IL-2Rβ than to IL-2Rαβ.

Chain of IL-2Rαβ (P01589 22-240 limits assumed): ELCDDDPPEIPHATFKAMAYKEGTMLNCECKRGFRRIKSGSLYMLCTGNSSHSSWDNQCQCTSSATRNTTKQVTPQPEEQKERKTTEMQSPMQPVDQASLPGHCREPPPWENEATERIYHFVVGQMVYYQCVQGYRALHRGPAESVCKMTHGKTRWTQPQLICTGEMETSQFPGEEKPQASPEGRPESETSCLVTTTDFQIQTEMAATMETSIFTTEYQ
Chain of IL-2Rαβ (P14784 27-240 limits assumed): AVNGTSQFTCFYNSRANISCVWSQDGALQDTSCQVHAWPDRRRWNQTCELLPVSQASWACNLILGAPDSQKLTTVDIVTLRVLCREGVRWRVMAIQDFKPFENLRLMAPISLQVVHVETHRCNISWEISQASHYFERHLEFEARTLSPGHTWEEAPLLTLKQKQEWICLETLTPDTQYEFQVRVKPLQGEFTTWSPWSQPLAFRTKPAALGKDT

In the case of “(2,7-(bis-methoxyPEG10kD-carboxyamide)(9H-fluorene-9-yl)methyl N-carbamate)6avg interleukin-2 [bempegaldesleukin]”, the “decrease in affinity to IL-2Rαβ relative to IL-2” value is reported as about 60 fold.
